The results in this text go back to patent US20080171709A1, “Pharmaceutical Composition Comprising An Antiviral Agent, An Antitumoral Agent Or An Antiparasitic Agent, And An Active Agent Selected Among Carveol, Thymol, Eugenol, Borneol,And Carvacrol” (priority 2005, published 2008).

Molecules are shown by their SMILES. Converted amounts (≈) assume the structure as drawn. Read-outs that look alike come from different tables or passages of the source.

In series [1] the test system is HEP (human larynx carcinoma) cell line. The series is described as follows: MTT cytotoxicity on HEP cell line. In kind it is cell-based. The method, then:
(§1) […] tests were carried out on HEP (human larynx carcinoma), BSR (hamster kidney carcinoma) and P815 (murin mastocytoma) cell lines cultivated on DMEM medium (Dulbecco's modified eagles medium) supplemented with 5% of fetal bovine serum (Gibco BRL, France), 1% of penicillin- streptomycin-neomycin, 0.2% of sodium bicarbonate. These percentages are given as ratio of the weight to the global volume of the medium.
(§2) In these compositions, excipient is agar solution.
(§3) IC50 have been determined.

The test system of series [2] is BSR (hamster kidney carcinoma) cell line. The series is described as follows: MTT cytotoxicity on BSR cell line. It counts as cell-based. Particulars: Mesocricetus auratus, read-out: IC50 (concentration inducing cytotoxicity for 50% of treated tumor cells). The protocol:
as §1, §2, §3

Series [3] deals with P815 (murin mastocytoma) cell line. The series is described as follows: MTT cytotoxicity on P815 cell line. In kind it is cell-based. The settings on record: Mus musculus, P815, read-out: IC50 (concentration inducing cytotoxicity for 50% of treated tumor cells). The method, then: as §1, §2, §3
Series [4] concerns HEP, BSR and P815 cell lines. The series is described as follows: cells. The protocol: as §1, §2, §3
[5] abbreviates: read-out: IC50 (concentration inducing cytotoxicity for 50% of treated tumor cells).

Take `Cc1ccc(C(C)C)cc1O` [Carvacrol, carvacrol]: the IC50 in series [1] (read-out: IC50 (concentration inducing cytotoxicity for 50% of treated tumor cells), HEP, carvacrol, thymol or carveol alone) is 300 µg/mL (≈ 2000 µM); in series [2] (BSR, carvacrol, thymol or carveol alone) it was 300 µg/mL (≈ 2000 µM); in series [3], 300 µg/mL (≈ 2000 µM). The “cytotoxic effects towards cell lines at the concentration used in the tested compositions” value (“cytotoxic effects towards cell lines” below) in series [4] is listed as “without any cytotoxic effects”.
Regarding `Cc1ccc(C(C)C)c(O)c1` [Thymol, thymol], the IC50 in series [1] (setting [5]), in series [2] and in series [3] was 300 µg/mL (≈ 2000 µM) in each case. Moreover, in series [4], the “cytotoxic effects towards cell lines” value is listed as “without any cytotoxic effects”.
`C=C(C)C1CC=C(C)C(O)C1` (mixture of isomers) [Carveol, carveol]: the IC50 in series [1] (setting [5]), in series [2] and in series [3] was 400 µg/mL throughout. Moreover, in series [4], the “cytotoxic effects towards cell lines” value is on record as “without any cytotoxic effects”.
In the case of `COc1cccc2c1C(=O)c1c(O)c3c(c(O)c1C2=O)C[C@@](O)(C(=O)CO)C[C@@H]3O[C@H]1C[C@H](N)[C@H](O)[C@H](C)O1` [Doxorubicin, doxorubicin, reference compound], the IC50 in series [1] (setting [5]) is 20 µg/mL (≈ 36.8 µM); in series [2] it was 25 µg/mL (≈ 46 µM); in series [3], 15 µg/mL (≈ 27.6 µM); in series [4] (Mus musculus, P815, read-out: IC50 of doxorubicin used alone), 15 to 25 µg/mL (≈ 27.6 to 46 µM).
